Laboratory results: publication PMC10290117, “Molecular mechanism of phosphopeptide neoantigen immunogenicity” (Nature Communications, 2023)
Square brackets hold non-standard residues; d marks the D form. Ends that are not written are not given here. Peptide text beside a SMILES is read from it. Abu(4-PO3H2) = N[C@@H](CCP(=O)(O)O)C(=O)O; pS = N[C@@H](COP(=O)(O)O)C(=O)O

Tests used:
HLA-B*0702 = HLA-B*0702 (Homo sapiens, UniProt P01889); assay: Alpha assay, peptide binding to HLA-B*0702; conditions: Alpha assay (luminescent oxygen channeling), W6/32 antibody and biotinylated recombinant HLA class I; non-linear fit
Method: (§1) Peptides were dissolved in dimethyl sulfoxide (DMSO) at concentrations of 2–20 mg/mL, aliquoted and stored at −80 °C. Peptide-pulsing experiments were performed by pre-incubating T2 cells with 25 μg peptide per 1 × 10^6 cells in PBS for 2 h at 37 °C and 5% CO2, washed three times to remove unbound peptides and used for further downstream analysis. Peptide-pulsed T2 cells were incubated with effector cells in a 2:1 ratio overnight in SF-IMDM at 37 °C and 10% CO2, washed twice and stained with anti-mouse TCR-® chain clone H57-597 (BD Pharmingen #560656, 1:500) for 30 min at RT. Cells were washed twice before FACS-analysis using a BD FACS Canto II with System software v2.0. Data analysis was performed using FlowJo V10 Software. Binding affinity between each peptide and HLA-B*0702 was determined using an Alpha assay. It is a homogenous, proximity-based assay for detection of peptides binding to HLA class I molecules using a conformation-dependent anti-HLA class I antibody, W6/32, as one tag and a biotinylated recombinant HLA class I molecule as the other tag, and a proximity-based signal was generated through the luminescent oxygen channeling immunoassay technology (PerkinElmer) as described.

TCR27-AKD10R3 cells = assay: X-scan (peptide scan), EGFP reporter effector cells; type: cell-based, murine; conditions: Fig. 1c source data
Method: Tap-deficient T2 (174x CEM.T2) HLA-B*0702+ cells were received from Dr. Victor Engelhard. These and the commercially purchased Tap-deficient T2 (174 x CEM.T2) cells (ATCC CRL 1991) were maintained in RPMI 1640 (BioConcept) supplemented with 10% fetal calf serum (FCS, HyClone), 2mM L-glutamine and 1% Penicillin/Streptomycin at 37 °C and 5% CO2. The EGFP reporter cell line was based on a murine TCR negative thymoma cell line derived from strain BW5417 (ATCC®TIB-47TM) and was stably transduced with (a) TCR27 in which the human constant regions were replaced with those of mouse, (b) a chimeric mouse/human CD8, and (c) an EGFP reporter construct linked to a minimal IL-2 promoter comprising three NFAT-binding sites (3xNFAT)[44]. The transduced cells were termed TCR27-AKD10R3 cells and will be called the effector cells. Mouse cell lines were cultured in SF-IMDM (BioConcept) supplemented with 3% FCS, 1% Penicillin/Streptomycin, and 50 μM beta-mercaptoethanol at 37 °C and 10% CO2.
as §1
To identify the off-target peptides we have utilized an approach that was developed previously. In brief, we investigated which amino acids at each position in pMLL747–755 enable TCR interaction by sequentially replacing every amino acid position outside of the anchor positions 2 and 9 with all 19 alternative amino acids, resulting in 134 peptides (133 altered peptides plus original epitope). Each peptide was individually evaluated using cell-based in vitro cytotoxicity assay. To represent the TCR recognition kernel, we have defined Position Weight Matrices (PWMs) for each assay by assigning normalized measurements to each of the 20 amino acids in each position. To predict potential off-target peptides, we applied an algorithm projecting the PWM-defined kernel into the human proteome, scoring TCR27 recognition for the predicted HLA-B^*0702 binding 9-mer peptides. Of the 11 peptides with highest predicted cross-reactivity scores, we confirmed that only 2, […] and pDOT1L998–1006, strongly activated the TCR27-expressing effector T cells.

[1] = HLA B*07, T2 cells pulsed with 25 μg peptide per 1 × 10^6 cells, 2 h, 37 °C, effector cells 2:1 overnight, mean value of triplicate

## CSCC[C@H](NC(=O)[C@H](CO)NC(=O)[C@H](Cc1c[nH]cn1)NC(=O)[C@H](CO)NC(=O)[C@@H]1CCCN1C(=O)[C@H](CCP(=O)(O)O)NC(=O)[C@H](CCCNC(=N)N)NC(=O)[C@@H]1CCCN1C(=O)[C@@H](N)CCC(=O)O)C(=O)O [E7P-MLL747–755] (H-EPR[Abu(4-PO3H2)]PSHSM-OH)
HLA-B*0702
  Kd: 33.9 nM

## CSCC[C@H](NC(=O)[C@H](CO)NC(=O)[C@H](Cc1c[nH]cn1)NC(=O)[C@H](CO)NC(=O)[C@@H]1CCCN1C(=O)[C@H](COS(=O)(=O)O)NC(=O)[C@H](CCCNC(=N)N)NC(=O)[C@@H]1CCCN1C(=O)[C@@H](N)CCC(=O)O)C(=O)O [OSE-MLL747–755]
HLA-B*0702
  Kd: 26.2 nM

## CC(C)C[C@H](NC(=O)[C@H](CCC(N)=O)NC(=O)[C@H](Cc1c[nH]cn1)NC(=O)[C@H](C)NC(=O)[C@@H]1CCCN1C(=O)[C@H](COP(=O)(O)O)NC(=O)[C@H](C)NC(=O)[C@@H]1CCCN1C(=O)[C@@H](N)CC(C)C)C(=O)O [pDOT1L998–1006] (H-LPA[pS]PAHQL-OH)
HLA-B*0702
  Kd: 309 nM

## CSCC[C@H](NC(=O)[C@H](CO)NC(=O)[C@H](Cc1c[nH]cn1)NC(=O)[C@H](CO)NC(=O)[C@@H]1CCCN1C(=O)[C@H](COP(=O)(O)O)NC(=O)[C@H](CCCNC(=N)N)NC(=O)[C@@H]1CCCN1C(=O)[C@@H](N)CCC(=O)O)C(=O)O [pMLL747–755] (H-EPR[pS]PSHSM-OH)
HLA-B*0702
  Kd: 56.7 nM

## EPRSPSHSM [MLL747–755]
HLA-B*0702
  Kd: 27 nM

## EPWsPSHSM [single-residue substitution of pMLL747–755, Pos 3]
TCR27-AKD10R3 cells; [1]
  Percentage GFP positive from TCR+ cells: 0.92%

## EPYsPSHSM [single-residue substitution of pMLL747–755, Pos 3]
TCR27-AKD10R3 cells; [1]
  Percentage GFP positive from TCR+ cells: 1.08%

## FPRsPSHSM [single-residue substitution of pMLL747–755, Pos 1]
TCR27-AKD10R3 cells; [1]
  Percentage GFP positive from TCR+ cells: 1.43%

## GPRsPSHSM [single-residue substitution of pMLL747–755, Pos 1]
TCR27-AKD10R3 cells; [1]
  Percentage GFP positive from TCR+ cells: 1.59%

## HPRsPSHSM [single-residue substitution of pMLL747–755, Pos 1]
TCR27-AKD10R3 cells; [1]
  Percentage GFP positive from TCR+ cells: 1.23%

## IPRsPSHSM [single-residue substitution of pMLL747–755, Pos 1]
TCR27-AKD10R3 cells; [1]
  Percentage GFP positive from TCR+ cells: 1.7%

## KPRsPSHSM [single-residue substitution of pMLL747–755, Pos 1]
TCR27-AKD10R3 cells; [1]
  Percentage GFP positive from TCR+ cells: 1.37%

## LPASPAHQL [DOT1L998–1006]
HLA-B*0702
  Kd: 54.3 nM

## LPRsPSHSM [single-residue substitution of pMLL747–755, Pos 1]
TCR27-AKD10R3 cells; [1]
  Percentage GFP positive from TCR+ cells: 10.7%

## MPRsPSHSM [single-residue substitution of pMLL747–755, Pos 1]
TCR27-AKD10R3 cells; [1]
  Percentage GFP positive from TCR+ cells: 1.37%

## NPRsPSHSM [single-residue substitution of pMLL747–755, Pos 1]
TCR27-AKD10R3 cells; [1]
  Percentage GFP positive from TCR+ cells: 1.27%

## PPRsPSHSM [single-residue substitution of pMLL747–755, Pos 1]
TCR27-AKD10R3 cells; [1]
  Percentage GFP positive from TCR+ cells: 1.13%

## QPRsPSHSM [single-residue substitution of pMLL747–755, Pos 1]
TCR27-AKD10R3 cells; [1]
  Percentage GFP positive from TCR+ cells: 2.64%

## RPRsPSHSM [single-residue substitution of pMLL747–755, Pos 1]
TCR27-AKD10R3 cells; [1]
  Percentage GFP positive from TCR+ cells: 1.11%

## RVR[pS]PTRSL [unrelated phosphopeptide control of the X-scan, reference compound]
TCR27-AKD10R3 cells; second set of control lines at the end of the sheet (no Pep code)
  Percentage GFP positive from TCR+ cells: 0.74%

## SPRsPSHSM [single-residue substitution of pMLL747–755, Pos 1]
TCR27-AKD10R3 cells; [1]
  Percentage GFP positive from TCR+ cells: 1.08%

## TPRsPSHSM [single-residue substitution of pMLL747–755, Pos 1]
TCR27-AKD10R3 cells; [1]
  Percentage GFP positive from TCR+ cells: 1.28%

## VPRsPSHSM [single-residue substitution of pMLL747–755, Pos 1]
TCR27-AKD10R3 cells; [1]
  Percentage GFP positive from TCR+ cells: 1.39%

## WPRsPSHSM [single-residue substitution of pMLL747–755, Pos 1]
TCR27-AKD10R3 cells; [1]
  Percentage GFP positive from TCR+ cells: 1.18%

## YPRsPSHSM [single-residue substitution of pMLL747–755, Pos 1]
TCR27-AKD10R3 cells; [1]
  Percentage GFP positive from TCR+ cells: 1.32%
